Data reported in US6803362B2, “Heterocyclic compounds” (Ortho-McNeil Pharmaceutical inc., priority 2001, dated 2004).

Tested on: Croton Oil Induced Topical Inflammation in Mice
Assay: Croton oil induced topical inflammation in mice (ear swelling)
Assay type: in vivo, mouse
Settings: 10 mg/kg s.c.; vs vehicle group; 6 h
Description: Male or female ICR derived mice weighing 22±1 g were used. Space allocation for 5 animals was 45×23×15 cm. Mice were house in APEC R cages. All animals were maintained in a controlled temperature (22° C.-24° C.) and humidity (60%-80%) environment with 12 h light/dark cycles. Free access to standard lab chow for Mice (LabDiet Rodent Diet, PMI Nutrition International, USA) and tap water was granted.
Acetone (Wako, Japan), Croton oil (Sigma, USA), Indomethacin (Sigma, USA) and Pyrogen free saline (Astar, Taiwan).
Groups of 5 ICR derived male mice weighing 22±1 g were used. […] Ear swelling was measured by Dyer model micrometer gauge 6 h after croton oil as an index of inflammation.

Compound: CN1CCN(C(=O)c2cc3cc(Cl)ccc3[nH]2)CC1 [Compound 1, (5-Chloro-1H-indol-2-yl)-(4-methyl-piperazin-1-yl)-methanone]
- % inhib (ear swelling): (−28%)
